Where two headings read alike, the source gives them in different places.
How the values were obtained:
Mouse recombinant SMOX = molecular target: T1, Mouse recombinant SMOX (Mus musculus, UniProt Q99K82); assay: SMOX inhibition assay; assay type: biochemical
T1 construct: gift: Paolo Mariottini, Department of Biology, University of Roma
Protocol: Mouse recombinant SMOX [4] was provided by Paolo Mariottini (Department of Biology, University of Roma). The biochemical activity was measured by its ability to oxidize spermine (specific substrate for SMOX) and produce H2O2 using a horseradish peroxidase coupled assay. The assay buffer for the mSMOX reaction was 100 mM Sodium Phosphate pH 8.0. The inhibition was monitored during 10 min in the presence of KM spermine peptide.

Rat pharmacokinetics = assay type: in vivo, Wistar rats; details: for AUC(0-inf) / Cmax / Tmax / AUC(0-t): Wistar; for AUC(0-inf): read-out: Plasma AUCinf; for AUC(0-t): read-out: Plasma AUClast
Protocol: Blood samples were collected at 0, 0.08 (for IV only), 0.25, 0.5, 1, 2, 4, and 6 (Only for PO) 8 and 24 hr for IV and PO group and at three rats were euthanized by using excess CO2 asphyxiation, each at 0.25, 1 and 4 hr post dose and brain was collected. The study was conducted at Sai Advantium Pharma Limited, Pune, India, in accordance with the guidelines of the Institutional Animal Ethics Committee (IAEC). Prior approval was obtained before initiation of the study (IAEC Protocol No. IAEC/PRT/006-11).
Blood samples were collected from each rat at 0.5, 1, 2, 4, 6, 8, 12, and 24 hr (oral gavage) or at 2, 4, 6, 8, 12, 24, 25, 27, 30 and 48 hr (drinking water) were collected from the retro-orbital plexus into labeled tubes, containing K2EDTA solution, as an anticoagulant. Animals were euthanized by using excess CO2 asphyxiation. […] Prior approval was obtained before initiation of the study (IAEC Protocol No. FB-14-069-R-089; IAEC-CPCSEA).
Plasma was harvested from the blood samples harvested in K2EDTA containing tubes by centrifugation at 4000 rpm for 10 min at 4 ± 2 °C and stored below -70 °C until bioanalysis. Brain tissue was homogenized with phosphate buffer saline (pH 7.4). Total homogenate volume was thrice the tissue weight. All samples were processed for analysis by precipitation using Imipramine as internal standard and analyzed with partially validated LC-MS/MS method. Pharmacokinetic parameters were calculated using the non-compartmental analysis tool of WinNonlin® Enterprise software (Pharsight Corp., USA; version 5.2).
Compound levels from 3 samples per timepoint (for a given dose and route of administration), were used to calculated pharmacokinetic parameters using the non-compartmental analysis tool of WinNonlin® Enterprise software (Pharsight Corp., USA; version 5.2).

SAMP8 mice = assay: Elevated Plus Maze (EPM), SAMP8; assay type: in vivo, mouse; details: 0.32 or 0.96 mg/kg/day
Protocol: Both male and female mice from the senescence accelerated strain SAMP8 and its control SAMR1 of different ages (see Table S3 for details) were used in these studies. Mice were breed in the animal facilities of the Pharmacy Faculty (University of Barcelona), maintained in a at 22 ± 2 °C controlled temperature in a 12 hr light / dark cycle (lights on at 8:00 am; 300 lux/0 lux) with ad libitum access to food (2018 TEKLAD, Harlan) and water. Male mice were housed individually (males) or in groups of 4-5 animals (females) in plastic colony boxes with a sawdust bedding material. […] SAMR1 mice treated with vehicle were included as a control. […] Drug concentration was calculated weekly in function of body weight and corrected in function of drinking water consumption. Cognitive function was evaluated by NORT, social behavior was evaluated by RI and anxiety and motor function were evaluated by EPM and OF. […]
The EPM consisted of four arms at right angles to each other connected to a central square and maintained elevated 50 cm above the floor. […] The animal was placed facing a closed arm, and its movements were video-recorded for 5 min and analyzed by video-tracking using SMART® (v3.0, PanLab, SLU, Spain).
Elevated Plus Maze (EPM): Movements were video-recorded for 5 min and analyzed by video-tracking using SMART® (v3.0, PanLab, SLU, Spain).

[1] = tested on: 5-HT (non-selective) (agonist radioligand); assay: CEREP Diversity Panel; assay type: binding; set-up: dose or concentration left out as unconfirmed
Protocol: (§1) […]. MAO-A inhibition at 10 μM was 37%, in line with internal data.

[2] = tested on: AMPA (agonist radioligand); assay: CEREP Diversity Panel; assay type: binding; set-up: dose or concentration left out as unconfirmed
Protocol: as §1

[3] = tested on: BZD (central) (agonist radioligand); assay: CEREP Diversity Panel; assay type: binding; set-up: dose or concentration left out as unconfirmed
Protocol: as §1

[4] = tested on: GABA (non-selective) (agonist radioligand); assay: CEREP Diversity Panel; assay type: binding; set-up: dose or concentration left out as unconfirmed
Protocol: as §1

[5] = tested on: GABA transporter (antagonist radioligand); assay: CEREP Diversity Panel; assay type: binding; set-up: dose or concentration left out as unconfirmed
Protocol: as §1

[6] = tested on: KV channel (antagonist radioligand); assay: CEREP Diversity Panel; assay type: binding; set-up: dose or concentration left out as unconfirmed
Protocol: as §1

[7] = tested on: Na+ channel (site 2) (antagonist radioligand); assay: CEREP Diversity Panel; assay type: binding; set-up: dose or concentration left out as unconfirmed
Protocol: as §1

[8] = tested on: P2X (agonist radioligand); assay: CEREP Diversity Panel; assay type: binding; set-up: dose or concentration left out as unconfirmed
Protocol: as §1

[9] = tested on: PCP (antagonist radioligand); assay: CEREP Diversity Panel; assay type: binding; set-up: dose or concentration left out as unconfirmed
Protocol: as §1

[10] = tested on: alpha 1 (non-selective) (antagonist radioligand); assay: CEREP Diversity Panel; assay type: binding; set-up: dose or concentration left out as unconfirmed
Protocol: as §1

[11] = tested on: guanylyl cyclase (h) (activator effect); assay: CEREP Diversity Panel; assay type: biochemical, human; set-up: dose or concentration left out as unconfirmed
Protocol: as §1

[12] = Wistar rats, oral gavage 10 mg/kg
[13] = male, rat, plasma, po, 5.6 mg/kg/day, Wistar rats, oral drinking water 0.25mg/ml (5,6 mg/kg)
[14] = male, rat, plasma, po, 10 mg/kg, Wistar rats, oral drinking water, dose normalized to 10 mg/Kg
[15] = male, rat, plasma, po, 10 mg/kg, Wistar rats, oral gavage 10 mg/kg
[16] = male, rat, plasma, po, 10 mg/kg, Wistar rats, oral gavage 10 mg/kg (second gavage column)
[17] = male, rat, plasma, po, 10 mg/kg, Wistar rats, oral gavage 10 mg/kg (second gavage column, gavage vs drinking water study)
[18] = male, rat, plasma, Wistar rats, intravenous 2 mg/kg

T1 sequence (Q99K82 whole entry): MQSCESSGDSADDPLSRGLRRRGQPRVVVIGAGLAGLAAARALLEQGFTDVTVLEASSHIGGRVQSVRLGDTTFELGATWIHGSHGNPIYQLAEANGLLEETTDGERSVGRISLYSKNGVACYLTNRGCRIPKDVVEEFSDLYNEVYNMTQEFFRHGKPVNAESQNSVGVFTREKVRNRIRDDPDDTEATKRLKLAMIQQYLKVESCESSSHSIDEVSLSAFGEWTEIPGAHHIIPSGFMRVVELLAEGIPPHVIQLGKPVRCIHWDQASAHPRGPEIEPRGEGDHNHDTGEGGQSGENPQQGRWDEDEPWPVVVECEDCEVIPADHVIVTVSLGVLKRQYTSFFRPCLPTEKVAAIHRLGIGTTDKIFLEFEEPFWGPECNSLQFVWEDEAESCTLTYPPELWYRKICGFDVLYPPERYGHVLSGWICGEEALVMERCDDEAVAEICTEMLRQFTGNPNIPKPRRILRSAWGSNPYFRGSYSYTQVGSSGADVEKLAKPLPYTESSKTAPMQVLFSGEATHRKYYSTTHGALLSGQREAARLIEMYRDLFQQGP

With Nc1nnc(CN[C@@H]2C[C@H]2c2ccc(OCc3ccccc3)cc2)o1 [ORY-2001, vafidemstat] the inhibition at 10 µM (Mouse recombinant SMOX) was 31%, the “Brain Cmax” value (Rat pharmacokinetics; [12]) was 4957 ng/g and the Fpo (Rat pharmacokinetics; [12]) was 95%. The “time for brain compound levels to return to baseline” value (Rat pharmacokinetics; brain pharmacokinetics (S2A Table)) was “less than 1 days”, the AUC(0-inf) (Rat pharmacokinetics; male, rat, plasma, iv, 2 mg/kg, Wistar rats, intravenous 2 mg/kg) was 3910 ng·h/mL and the Cmax (Rat pharmacokinetics; [13]) was 945 ng/mL. It also gave a Tmax (Rat pharmacokinetics; [13]) of 8.67 h, an AUC(0-t) (Rat pharmacokinetics; male, rat, plasma, po, 5.6 mg/kg/day, Wistar rats, oral drinking water 0.25mg/ml (5,6 mg/kg), ad libitum 24 hr) of 12000 ng·h/mL and an AUC(0-inf) (Rat pharmacokinetics; [13]) of 12100 ng·h/mL. The Cmax (Rat pharmacokinetics; [14]) was 1690 ng/mL, the Tmax (Rat pharmacokinetics; [14]) was 8.67 h and the AUC(0-t) (Rat pharmacokinetics; male, rat, plasma, po, 10 mg/kg, Wistar rats, oral drinking water, dose normalized to 10 mg/Kg considering a linear behavior) was 21500 ng·h/mL. For the same compound, the AUC(0-inf) (Rat pharmacokinetics; [14]) was 21700 ng·h/mL, the Cmax (Rat pharmacokinetics; [15]) was 3400 ng/mL and the Tmax (Rat pharmacokinetics; [15]) was 0.833 h. For the same compound, the Cmax (Rat pharmacokinetics; [16]) was 5970 ng/mL, the Tmax (Rat pharmacokinetics; [16]) was 2 h and the AUC(0-inf) (Rat pharmacokinetics; [17]) was 35600 ng·h/mL. It also gave an AUC(0-t) (Rat pharmacokinetics; [17]) of 32900 ng·h/mL, an AUC(0-inf) (Rat pharmacokinetics; [15]) of 21000 ng·h/mL and an AUC (Rat pharmacokinetics; male, rat, plasma, po, Wistar rats, p.o. 10 mg/kg, read-out: area-under-the-curve (AUC) (converted)) of 21000 ng·h/mL. It also gave a clearance (Rat pharmacokinetics; [18]) of 8.5 mL/min/kg, a half-life (Rat pharmacokinetics; [18]) of 1.87 h and a Vd (Rat pharmacokinetics; male, rat, plasma, Wistar rats, intravenous 2 mg/kg, read-out: Vss) of 1.2 L/kg. For the same compound, the half-life (Rat pharmacokinetics; male, rat, plasma, Wistar rats, oral gavage 10 mg/kg) was 3.28 h, the “time in the open arms of the EPM” value (SAMP8 mice) was “not significantly modified” and the “% inhibition” value [1] was 5%. The “% inhibition” value [2] was -2%, the “% inhibition” value [3] was -21% and the “% inhibition” value [4] was 6%. For the same compound, the “% inhibition” value [5] was -3%, the “% inhibition” value [6] was -4% and the “% inhibition” value [7] was 12%. For the same compound, the “% inhibition” value [8] was 3%, the “% inhibition” value [9] was 1% and the “% inhibition” value [10] was 0%. The “% inhibition” value [11] was 1%.

Source: PMC7259601 (PLoS ONE, 2020)
